Laboratory results reported in PMC11172314, “Towards Enhanced Tunability of Aqueous Biphasic Systems: Furthering the Grasp of Fluorinated Ionic Liquids in the Purification of Proteins” (International Journal of Molecular Sciences, 2024).
Like-named read-outs stand apart in the source and are kept apart here.

Legend:
FITC-Lys (lysozyme) = molecular target: T1, FITC-Lys (lysozyme) (Gallus gallus, UniProt P00698); assay: Microscale thermophoresis (MST) binding of ABS phase-forming components to FITC-labeled lysozyme; design: species or system chicken; conditions: FITC-Lys 0.41 μM, 25 °C
T1 construct: Lyophilized lysozyme from chicken egg white, ≥90% purity; purchased Millipore (Darmstadt, Germany); host or cells: chicken egg white (natural source)
T1 sequence (P00698 19-147): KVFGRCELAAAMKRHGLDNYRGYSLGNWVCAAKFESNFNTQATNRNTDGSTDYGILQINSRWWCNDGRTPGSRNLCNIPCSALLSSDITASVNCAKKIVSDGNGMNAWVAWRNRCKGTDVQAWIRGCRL
Experimental: Usually, in the labeling process, the position of dye is statistically distributed, and one amine per protein is labeled. […] The four ABS phase-forming components, [ N1112(OH) ][H2PO4] […] (FILs), and [C4C1Im][CF3SO3] […] In each run of MST, a maximum concentration of ligand was selected and consecutively diluted in sixteen capillaries.
Binding studies were conducted through microscale thermophoresis measurements of dye-labeled lysozyme. […] MST tests were conducted in a monolith NT.115 (blue/red) in accordance with the Nano Temper Technologies methodology. Medium MST power and 20% LED power (nano-blue) were set as the instrument’s default settings. For each and every MST measurement, PBS buffer was used. […] For each ligand, a series of 16 1:1 dilutions was prepared using the same buffer, varying the starting ligand concentration from 15 to 400 mM. MST traces were recorded using the standard parameters: 5 s MST power off, 30 s MST power on, and 5 s MST power off. Three independently conducted pipetted experiments’ data were examined using NanoTemper Technologies’ MO. Affinity Analysis program, version 2.3.

lysozyme (Lys) [1] = molecular target: T2, lysozyme (Lys) (Gallus gallus, UniProt P00698); assay: DSC thermal stability (Tm, ΔH) of lysozyme in water, component solutions and ABS phases; design: species or system chicken; conditions: for Lys Tm / Lys ∆H: 1.0 mg/mL Lys
T2 construct: Lyophilized lysozyme from chicken egg white, ≥90% purity; purchased Millipore (Darmstadt, Germany); host or cells: chicken egg white (natural source)
T2 sequence (P00698 19-147): as above
Description: Differential scanning calorimetry (DSC) measurements (Section 3) were used to determine the melting temperature ( Tm ) and enthalpy ( Δ H) of lysozyme, at which both the folded and unfolded states coexist at equilibrium. DSC outputs, thermal transitions at the nanoscale level, allow to analyze alterations on proteins structure and stability, providing sharp perceptions of the factors affecting stability, as well as of the folding and unfolding processes. […] (DSC curve depicted in Figure S16 of Supplementary Materials).
FIL (BP#8, BP#10, BP#11, and BP#12). […] For the system based on [C4C1Im][CF3SO3]
The thermal stability of lysozyme was analyzed in water, ABS phase-forming compounds aqueous solutions, and partition ABS phases. […] Partition lysozyme on each phase from the prepared biphasic points as well as recovered protein from the FIL-rich phase were also addressed for a selection of studied systems listed in Table 1. We acquired thermograms using a TA^TM Nano DSC from TA Instruments. All scans were conducted in a 300 μ L capillary cell through a temperature ramp from 20 to 90 °C at a heating rate of 1 °C/min and 3 atm pressure. All samples were degassed for 7 min at 20 °C, with the exception of FIL-containing samples owing to their surfactant properties. After subtracting the polynomial fit baselines, raw thermogram curve data were fitted with the TwoStateScaled model using NanoAnalyze TA Instruments software, version 3.12, to determine the protein thermal transition temperatures in each sample. During nanoDSC scans, Δ H and Δ S were obtained and utilized to determine Δ G ( Δ G = Δ H − T Δ S).

lysozyme (Lys) [2] = molecular target: T2, lysozyme (Lys); assay: Far-UV CD secondary structure content of lysozyme (K2D deconvolution); design: species or system chicken; Lys α-helix content / Lys β-sheet content / Lys random coil content / α-helix content / β-sheet content / Random coil content: unit not given here; conditions: 25 °C; for Lys random coil content / Lys α-helix content / Lys β-sheet content: 1.0 mg/ml Lys
Experimental: Circular dichroism (CD) spectroscopy is broadly applied to assess the secondary structure of proteins because different structural elements have characteristic CD spectra. […] For [C4C1Im][CF3SO3] (mere fluoro-containing IL), the structural content was estimated for the concentration range (0.1–200 mM). […] FIL and [ N1112(OH) ][H2PO4] […] No substantial protein structural modification upon the ABS phase-forming component addition was verified.
Circular dichroism (CD) spectra were collected in a 10 mm quartz cuvette and a Chirascan spectropolarimeter (Applied Photophysics, Leatherhead, UK) at room temperature. All CD spectra were recorded in far-UV 190 to 260 nm at scan rates of 50 nm/min, 4 accumulations, and a response time of 3 s. Each CD experiment involved the acquisition and combination of two distinct duplicates. […] Spectral deconvolution was carried out with Dichroweb using the K2D algorithm.

[3] = design: method as in earlier work; conditions: aqueous solution, 25 °C, conductometry; ref 21 (supplement ref 1); cited from earlier work
lysozyme (Lys) [4] = molecular target: T2, lysozyme (Lys); assay: Intrinsic (tryptophan) fluorescence of lysozyme; design: species or system chicken; conditions: 0.2 mg/mL Lys, excitation 295 nm, component 0.1–800 mM, 25 °C
Description: (FIL), [C4C1Im][CF3SO3] (mere fluoro-containing IL), and [ N1112(OH) ][H2PO4] (globular protein stabilizer). […] Even though large changes in protein conformation can modify the intensity of tyrosine and phenylalanine fluorescence signals, their low extinction coefficients and quantum yields, as well as their relative lower sensitivity to environmental changes, make them a less appealing candidate. Tryptophan is frequently found concealed in the hydrophobic core of proteins due to its aromatic nature. […] The tryptophan release energy is particularly sensitive to the polarity (and dynamics) of the environment because the excited-state dipole moment is quite large. Reactions to denaturation, substrate binding, subunit association, and conformational transitions create variations in the tryptophan emission spectra. The spectrum shift generally known as blue shift, a shift of the maximum emission towards smaller wavelengths, denotes that the aromatic residue is buried in the native structure of the protein [67]. […] Furthermore, the amount of exposure of the fluorophores to the solvent is associated with the increase or decrease in the intensity of the emission spectrum. […] [C4C1Im][CF3SO3] and [ N1112(OH) ][H2PO4] […] Variations in lysozyme spectra are caused by ligand-induced changes in the microenvironment of tryptophan residues, either by shifting the maximum peak wavelength (blue or red shift) or by altering peak intensities. These changes can be used as a measure of the effect of the ABS phase-forming components on protein folding and unfolding.
Intrinsic fluorescence spectroscopy measurements of lysozyme’s tryptophan residues were carried out on a Spex Horiba Jobyin Yvon spectrofluorometer (HORIBA Jobin Yvon, France) using a 10 mm path length quartz cuvette. […] The excitation and emission slit widths of 2 nm were used for all the measurements. Maximum fluorescence values were attained as the average of three measurements.

lysozyme (Lys) [5] = molecular target: T2, lysozyme (Lys); design: method as in PMID 28478279, PMID 17406547; conditions: cited from earlier work
[6] = cited from earlier work
[7] = max. conc. (first capillary) in monomer range: below 1st CAC for FILs, ]0, 100] mM for non-aggregating ligands

Row | Compound | Kd (FITC-Lys (lysozyme); [7]) | Lys Tm (lysozyme (Lys) [1]; 0.1 mM component in water) [°C] | Lys ∆H (lysozyme (Lys) [1]; 0.1 mM component in water) [kJ/mol] | Lys Tm (lysozyme (Lys) [1]; 1 mM component in water) [°C] | Lys ∆H (lysozyme (Lys) [1]; 1 mM component in water) [kJ/mol] | Lys Tm (lysozyme (Lys) [1]; 5 mM component in water) [°C] | Lys ∆H (lysozyme (Lys) [1]; 5 mM component in water) [kJ/mol] | Lys Tm (lysozyme (Lys) [1]; 10 mM component in water) [°C] | Lys ∆H (lysozyme (Lys) [1]; 10 mM component in water) [kJ/mol] | Lys random coil content (lysozyme (Lys) [2]; 0.1 mM component) | Lys α-helix content (lysozyme (Lys) [2]; 0.1 mM component) | Lys β-sheet content (lysozyme (Lys) [2]; 0.1 mM component) | Lys random coil content (lysozyme (Lys) [2]; 1 mM component) | Lys α-helix content (lysozyme (Lys) [2]; 1 mM component) | Lys β-sheet content (lysozyme (Lys) [2]; 1 mM component) | Lys random coil content (lysozyme (Lys) [2]; 5 mM component) | Lys α-helix content (lysozyme (Lys) [2]; 5 mM component) | Lys β-sheet content (lysozyme (Lys) [2]; 5 mM component) | Lys random coil content (lysozyme (Lys) [2]; 25 mM component) | Lys α-helix content (lysozyme (Lys) [2]; 25 mM component) | further results
1 | C[N+](C)(C)CCO.O=S(=O)([O-])C(F)(F)C(F)(F)C(F)(F)C(F)(F)F [[N1112(OH) ][C4F9SO3]] | no binding detected | 77.15 | 570.4 | 76.65 | 534.5 | 75.19 | 514.5 | 74.28 | 560.8 | 0.57 | 0.28 | 0.15 | 0.58 | 0.28 | 0.14 | 0.56 | 0.25 | 0.19 | 0.57 | 0.24 | Lys Tm (lysozyme (Lys) [1]; 25 mM component in water, several transitions listed singly, listed as [N1112(OH)][C4F9SO3]): 83.98 °C; Lys β-sheet content (lysozyme (Lys) [2]; 25 mM component): 0.2; 1st CAC [3]: 16.02 mM; 2nd CAC [3]: 35.17 mM; 3rd CAC [3]: 185.65 mM
2 | O=S(=O)(O)C(F)(F)C(F)(F)C(F)(F)C(F)(F)F [[N1112(OH) ][C4F9SO3]] | – | – | – | – | – | – | – | – | – | – | – | – | – | – | – | – | – | – | – | – | Kd (FITC-Lys (lysozyme); max. conc. (first capillary) in 1st CAC range ([14.4, 34.48[ or [16.02, 35.17[ mM), read-out: Kd): 6.05 ± 1.67 mM; Kd (FITC-Lys (lysozyme); max. conc. (first capillary) in 2nd CAC range ([34.48, 76.54[ or [35.17, 185.65[ mM), read-out: Kd): 6.25 ± 1.47 mM
3 | C[N+](C)(C)CCO.C[N+](C)(C)CCO.O=P([O-])(O)O.O=P([O-])(O)O [[N1112(OH) ][H2PO4], Choline ((2-hydroxyethyl)trimethylammonium) dihydrogen phosphate] | no binding detected | 77.10 | 564.1 | 77.11 | 554.2 | 76.70 | 597.6 | 77.06 | 576.4 | 0.56 | 0.29 | 0.15 | 0.58 | 0.28 | 0.14 | 0.56 | 0.25 | 0.18 | 0.57 | 0.24 | Lys β-sheet content (lysozyme (Lys) [2]; 25 mM component): 0.2; Lys fluorescence emission intensity with increasing component concentration (lysozyme (Lys) [4]): reduction in fluorescence emission intensity; Lys maximum emission wavelength with increasing component concentration (lysozyme (Lys) [4]): remains constant
4 | Lys: lysozyme from chicken egg white (muramidase, EC 3.2.1.17), 14 kDa globular protein used as protein model | – | – | – | – | – | – | – | – | – | – | – | – | – | – | – | – | – | – | – | – | Tm (lysozyme (Lys) [1]; 0.5 mg/ml Lys in water): 69.26±0.031 °C; ∆H (lysozyme (Lys) [1]; 1.0 mg/mL Lys in water): 493.6 kJ/mol; Tm (lysozyme (Lys) [1]; 3.0 mg/ml Lys in water): 73.85±0.005 °C; α-helix, secondary structure prediction (lysozyme (Lys) [2]; 1.0 mg/mL Lys in water): 29%; β-strand, secondary structure prediction (lysozyme (Lys) [2]; 1.0 mg/mL Lys in water): 14%; Random coil content (lysozyme (Lys) [2]; 1.0 mg/ml Lys in water (0 mM)): 0.57; α-helix content (lysozyme (Lys) [2]; 1.0 mg/ml Lys in water (0 mM)): 0.29; β-sheet content (lysozyme (Lys) [2]; 1.0 mg/ml Lys in water (0 mM)): 0.14; β-strand, analysis based on various methods (lysozyme (Lys) [5]): ≈ 19%; isoelectric point [6]: around 11.0
